Experimental data reported in patent US7247734B2 (Vernalis (Cambridge) Limited, priority 2001, dated 2007).

What follows are compounds tested against T1, yeast HSP90 (Saccharomyces cerevisiae, UniProt P02829) (assay: Malachite green HSP90 ATPase assay). Settings: Hsp90 IC50, activity class.
T1 construct: made in house; host or cells: E. coli
Assay type: biochemical
Source text: Two methods have been developed to measure the intrinsic ATPase activity of HSP90, using yeast HSP90 as a model system. The first method utilises a regenerating coupled enzyme assay. The second assay, based on the use of malachite green for the measurement of inorganic phosphate, was designed for high throughput screening (HTS) to identify novel HSP90 inhibitor drug candidates.
Colorimetric assays for the determination of phosphate, based on the formation of a phosphomolybdate complex, can be carried out in a few steps with inexpensive reagents and are well suited to the automation required for high throughput screening (see, e.g., Cogan et al., 1999). Enzymes that release inorganic phosphate are assayed using the reaction of the cationic dye, malachite green, with the a complex formed by a reaction of the inorganic phosphate with molybdate to generate a blue-green colour with an absorbance maximum at 610 nm (see, e.g., Baykov et al., 1988; Harder et al., 1994; Maehama et al., 2000). The method has been used in both high throughput (see, e.g., Rumsfeld et al., 2000) and ultra-high throughput screening formats (see, e.g., Layery et al., 2001) for a variety of non-HSP90 ATPases. However, this method is complicated by the non-enzymatic hydrolysis of ATP in the presence of acidic malachite green reagent, causing an increase in colour (see, e.g., Chan et al., 1986; Henkel et al., 1988). This process is mediated by molybdate and can be overcome by the addition of sodium citrate immediately after the reagent (see, e.g., Lanzetta et al., 1979; Schirmer et al., 1998; Baginski et al., 1975). This modification has been adapted to the 96-well microtitre plate assay previously described for other ATPases (see, e.g., Lanzetta et al., 1979) to produce the following protocol for HSP90 ATPase, which is suitable for high throughput screening.
Chemicals are of the highest purity commercially available and all aqueous solutions are made up in AR water. Because of the need to minimise contamination with inorganic phosphate, precautions should be taken with solutions and apparatus used in the assays. Glassware and pH meters are rinsed with double distilled or deionised water before use and, wherever possible, plastic ware should be used. Gloves are worn for all procedures. • (1) Immulon 96-well (Thermo Labsystems, Basingstoke, UK) or Cliniplate 384-well flat-bottomed polystyrene multiwell plates (Thermo Labsystems). • (2) Assay buffer of (a) 100 mM Tris-HCl, pH 7.4, (b) 20 mM KCl, (c) 6 mM MgCl2. Stored at 4° C. • (3) 0.0812% (w/v) malachite green (M 9636, Sigma Aldrich Ltd., Poole, UK). Stored at room temperature. • (4) 2.32% (w/v) polyvinyl alcohol USP (P 1097, Sigma Aldrich Ltd, Poole, UK) in boiling water (see Comment 1), allowed to cool, and stored at room temperature. • (5) 5.72% (w/v) ammonium molybdate in 6 M hydrochloric acid. Stored at room temperature. • (6) 34% (w/v) sodium citrate. Stored at room temperature. • (7) ATP, disodium salt, special quality (519979, Boehringer Mannheim, Lewes, UK). Stored at 4° C. • (8) E. coli expressed yeast HSP90 protein, purified >95% (see, e.g., Panaretou et al., 1998) and stored at −80° C. as 10 μl aliquots containing 0.5 mg of protein. Method
The following protocol was used: • (1) On the day of use, prepare the malachite green reagent from the stock solutions. Mix (a) 2 parts of malachite green, (b) 1 part of polyvinyl alcohol, (c) 1 part of ammonium molybdate, and (d) 2 parts of water. Initially, the reagent is a dark brown colour, but after standing at room temperature for about 2 h, this becomes a golden yellow colour and is ready for use. • (2) For the high throughput screening assays, the test compounds are dissolved at 200 μM in 2.0% DMSO and contained in daughter plates derived from the chemical libraries. Transfer 5 μl of each sample from the daughter plate to each well of the assay plate using automated equipment (see Comment 3). This represents a final concentration in the well of 40 μM.

T1 sequence (P02829 whole entry, looked up): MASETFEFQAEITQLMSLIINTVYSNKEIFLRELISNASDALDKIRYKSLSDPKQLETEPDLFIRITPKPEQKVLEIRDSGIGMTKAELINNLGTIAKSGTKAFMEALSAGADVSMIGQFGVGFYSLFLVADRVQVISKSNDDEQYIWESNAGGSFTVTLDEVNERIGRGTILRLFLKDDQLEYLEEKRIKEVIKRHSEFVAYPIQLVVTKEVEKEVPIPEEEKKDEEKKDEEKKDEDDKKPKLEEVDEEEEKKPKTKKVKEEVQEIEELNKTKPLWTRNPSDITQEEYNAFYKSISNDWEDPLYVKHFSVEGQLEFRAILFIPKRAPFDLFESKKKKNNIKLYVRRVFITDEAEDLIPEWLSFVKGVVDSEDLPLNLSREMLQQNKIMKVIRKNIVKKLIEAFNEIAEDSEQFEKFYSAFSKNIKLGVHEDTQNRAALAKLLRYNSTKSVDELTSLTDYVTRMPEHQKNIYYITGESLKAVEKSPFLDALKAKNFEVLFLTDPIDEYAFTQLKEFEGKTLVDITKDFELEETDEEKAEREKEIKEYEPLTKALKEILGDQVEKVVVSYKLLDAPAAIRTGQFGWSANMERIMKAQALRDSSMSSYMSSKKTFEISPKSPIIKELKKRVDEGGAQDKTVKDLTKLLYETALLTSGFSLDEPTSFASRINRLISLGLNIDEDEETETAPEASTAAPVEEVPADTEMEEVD

SMILES | IC50 [µM]
CCc1cc(-c2n[nH]c(C)c2-c2ccc3c(c2)OCCO3)c(O)cc1O [Example 49] | < 10
Oc1cc(O)c(-c2n[nH]cc2-c2ccc3c(c2)OCCO3)cc1Cl [Example 63] | < 10
COc1ccc(-c2c(-c3cc(Cl)c(O)cc3O)n[nH]c2C)cc1 [Example 64] | < 10
Cc1[nH]nc(-c2ccc(O)cc2O)c1-c1ccc2c(c1)OCCO2 [Example 81] | 10 to 100
COc1ccc(-c2c(-c3ccc(O)cc3O)n[nH]c2C)cc1 [Example 92] | 10 to 100
COc1ccc(-c2c(-c3cc(Br)c(O)cc3O)n[nH]c2C)cc1 [Example 93, 4-Bromo-6-[4-(4-methoxy-phenyl)-5-methyl-1H-pyrazol-3-yl]-benzene-1,3-diol] | < 10
Cc1[nH]nc(-c2cc(Cl)c(O)cc2O)c1-c1ccc2c(c1)OCCO2 [Example 109] | < 10

Same assay, conditions: activity class; read-out: Hsp90 IC50

SMILES | IC50 [µM]
CCc1cc(-c2n[nH]cc2-c2ccc(OC)c(OC)c2)c(O)cc1O [Example 50] | < 10
COc1ccc(-c2c[nH]nc2-c2ccc(O)cc2O)cc1OC [Example 51] | 10 to 100
Oc1ccc(-c2[nH]ncc2-c2ccc(Br)cc2)c(O)c1 [Example 56] | > 10
N#CCCCOc1ccc(-c2cn[nH]c2-c2cc(Cl)c(O)cc2O)cc1 [Example 61] | < 10
Oc1cc(O)c(-c2n[nH]cc2-c2ccc(-c3ccc(F)cc3)cc2)cc1Cl [Example 62] | < 10
CCc1cc(-c2n[nH]cc2-c2ccc(Br)cc2)c(O)cc1O [Example 79] | < 10
CCc1cc(-c2n[nH]cc2-c2ccc([N+](=O)[O-])cc2)c(O)cc1OC [Example 80] | 10 to 100
CCc1cc(-c2n[nH]cc2-c2ccc3c(c2)OCCO3)c(O)cc1O [Example 83] | < 10
CCc1cc(-c2n[nH]c(C(F)(F)F)c2-c2nc3ccccc3s2)c(O)cc1O [Example 84] | 10 to 100
CCc1cc(-c2n[nH]cc2-c2ccc3c(c2)OCO3)c(O)cc1O [Example 87] | < 10
Cc1nc(-c2c[nH]nc2-c2cc(C)c(O)cc2O)cs1 [Example 90] | 10 to 100
CCc1cc(-c2n[nH]cc2-c2cscn2)c(O)cc1O [Example 91] | 10 to 100
CCCc1cc(-c2[nH]ncc2-c2ccc(C(=O)OCC)o2)c(O)cc1O [Example 97] | 10 to 100
CCCc1cc(-c2n[nH]c(C)c2-c2ccc(C(=O)OCC)o2)c(O)cc1O [Example 98] | 10 to 100
CCc1cc(-c2[nH]nc(CCC(=O)O)c2-c2nc3ccccc3n2C)c(O)cc1O [Example 99] | 10 to 100
CCc1cc(-c2n[nH]cc2-c2ncc(C)s2)c(O)cc1O [Example 101] | 10 to 100
CCc1cc(-c2n[nH]c(C(=O)O)c2-c2ncc(C)s2)c(O)cc1O [Example 102] | 10 to 100
Cc1c(CC(=O)NCc2ccc(-c3c[nH]nc3-c3cc(Cl)c(O)cc3O)cc2)c(=O)oc2cc(N)c(S(=O)(=O)O)cc12 [Example 105] | < 10
O=C(NCc1ccc(-c2c[nH]nc2-c2cc(Cl)c(O)cc2O)cc1)c1ccc(-c2c3ccc(=O)cc-3oc3cc(O)ccc23)c(C(=O)O)c1 [Example 106, N-{4-[3-(5-Chloro-2,4-dihydroxy-phenyl)-1H-pyrazol-4-yl]-benzyl}-6-(6-hydroxy-3-oxo-3H-xanthen-9-yl)-isophthalamic acid] | < 10
Cc1[nH]nc(-c2cc(F)ccc2O)c1-c1ccc2c(c1)OCCO2 [Example 108] | < 10
Cc1[nH]nc(-c2ccc(S(N)(=O)=O)cc2)c1-c1ccc2c(c1)OCCO2 [Example 111] | > 10

Further lines, results first:

IC50 [µM] | SMILES
< 10 | COc1ccc(-c2c[nH]nc2-c2cc(Cl)c(O)cc2O)cc1OC [Example 52]
< 10 | Oc1cc(O)c(-c2n[nH]cc2-c2ccccc2)cc1Cl [Example 53]
< 10 | CCc1cc(-c2n[nH]cc2-c2ccccc2)c(O)cc1O [Example 54]
10 to 100 | Oc1ccc(-c2[nH]ncc2-c2ccccc2)c(O)c1 [Example 55]
< 10 | Oc1cc(O)c(-c2n[nH]cc2-c2ccc(Br)cc2)cc1Cl [Example 57]
< 10 | Cc1[nH]nc(-c2cc(Cl)c(O)cc2O)c1-c1ccc(Br)cc1 [Example 58]
> 10 | Cc1[nH]nc(-c2ccc(O)cc2O)c1-c1ccccc1 [Example 59]
< 10 | Oc1cc(O)c(-c2n[nH]cc2-c2ccccc2Br)cc1Cl [Example 60]
< 10 | Oc1cc(O)c(-c2n[nH]cc2-c2ccccc2F)cc1Cl [Example 65]
< 10 | Oc1cc(O)c(-c2n[nH]cc2-c2cccc(Br)c2)cc1Cl [Example 66]
< 10 | Oc1cc(O)c(-c2n[nH]cc2-c2cccc(OCCF)c2)cc1Cl [Example 67]
10 to 100 | COc1ccc(-c2cccc(-c3c[nH]nc3-c3cc(Cl)c(O)cc3O)c2)cc1OC [Example 68]
10 to 100 | Cc1[nH]nc(-c2cc(Cl)c(O)cc2O)c1-c1ccccc1Br [Example 69]
< 10 | Cc1n[nH]c(-c2cc(Cl)c(O)cc2O)c1-c1ccc(OCCCC#N)cc1 [Example 70]
10 to 100 | COc1ccccc1-c1c[nH]nc1-c1cc(Cl)c(O)cc1O [Example 71]
< 10 | CCOc1cccc(-c2ccc(-c3c[nH]nc3-c3cc(Cl)c(O)cc3O)cc2)c1 [Example 72]

IC50 [µM] | SMILES
< 10 | N#CCCCOc1cccc(-c2c[nH]nc2-c2cc(Cl)c(O)cc2O)c1 [Example 73]
< 10 | N#CCCCOc1ccccc1-c1c[nH]nc1-c1cc(Cl)c(O)cc1O [Example 74]
< 10 | O=C(O)CCCOc1ccc(-c2c[nH]nc2-c2cc(Cl)c(O)cc2O)cc1 [Example 75]
< 10 | Oc1ccc(-c2c[nH]nc2-c2cc(Cl)c(O)cc2O)cc1 [Example 76]
< 10 | COc1cccc(-c2c[nH]nc2-c2cc(Cl)c(O)cc2O)c1 [Example 77]
< 10 | Cc1[nH]nc(-c2cc(Cl)c(O)cc2O)c1-c1ccccc1 [Example 78]
10 to 100 | CCc1cc(-c2n[nH]c(C)c2-c2nc3ccccc3n2C)c(O)cc1O [Example 82]
> 10 | Cc1[nH]nc(-c2ccc(O)cc2O)c1-c1ccc2c(c1)OCCCO2 [Example 86]
10 to 100 | CCCc1cc(-c2n[nH]c(C)c2-c2ccc3c(c2)OCCO3)c(O)cc1O [Example 88]
< 10 | COc1ccc(-c2c(-c3cc(-c4ccccc4)c(O)cc3O)n[nH]c2C)cc1 [Example 94]
< 10 | COc1ccc(-c2c(-c3cc(CCc4ccccc4)c(O)cc3O)n[nH]c2C)cc1 [Example 95]
10 to 100 | CCCc1cc(-c2n[nH]c(C)c2-c2nc3ccccc3s2)c(O)cc1O [Example 100]
10 to 100 | CCc1cc(-c2n[nH]c(C(F)(F)F)c2-c2ccccc2)c(O)cc1O [Example 103]
< 10 | COc1ccc(-c2c(-c3cc(Cc4ccccc4)c(O)cc3O)n[nH]c2C)cc1 [Example 104, 4-benzyl-6-[4-(4-methoxy-phenyl)-5-methyl-1H-pyrazol-3-yl]-benzene-1,3-diol]
10 to 100 | Cc1[nH]nc(-c2cc(Cl)ccc2O)c1-c1ccc2c(c1)OCCO2 [Example 107]
> 10 | Cc1ccc(O)c(-c2n[nH]c(C)c2-c2ccc3c(c2)OCCO3)c1 [Example 110]

Same assay, conditions: malachite green assay, 1 mM ATP; ±SD if n=3–5; read-out: HSP90 ATPase inhibition IC50

IC50 [µM] | SMILES
52.8 ± 12 | CCCc1cc(-c2n[nH]c(C)c2-c2ccc3c(c2)OCCO3)c(O)cc1O [CCT018156]
19 | CCCc1cc(-c2n[nH]c(C)c2-c2ccc3c(c2)OCO3)c(O)cc1O [CCT018158]
